Experimental data as given in US20100255045A1, “COMPOSITION FOR PHOTODYNAMIC SKIN TREATMENT” (priority 2007, published 2010).

Key:
[1] = Water-solubility; assay type: physicochemical; details: compared with chlorophyll
[2] = system: skin; assay: Applicant's studies of chlorophyllin combined with aminolevulinic acid

water-solubility [1]: good water-solubility
Substance: chlorophyllin
effectiveness of aminolevulinic acid [2]: promoting the effectiveness
protective role against side effects of aminolevulinic acid (erythema) [2]: preventing in particular the appearance of erythema
